Holding throughout (assay type): functional
Conditions in all cases: route intraperitoneal

Experiment [1] in a line: Macrofilaricidal activity (maf) against Acanthocheilonema viteae in Mastomys natalensis at a dose of 30 mg/kg for 5 days by ip administration; Inactive.
Experiment [2] is described as follows: Antifilarial (Microfilariae) activity (mf) against Litomosoides carinii in cotton rats at a dose of 30 mg/kg for 5 days by ip administration; Inactive.
Experiment [3] in a line: Macrofilaricidal activity (maf) against Litomosoides carinii in cotton rats at a dose of 30 mg/kg for 5 days by ip administration; Inactive.
The subject of experiment [4] is Rattus norvegicus. Description: Antifilarial (Microfilariae) activity (mf) against Litomosoides carinii in cotton rats at a dose of 30 mg/kg for 5 days by ip administration.
The subject of experiment [5] is Rattus norvegicus. As to the kind of experiment: Antifilarial (Microfilariae) activity (mf) against Acanthocheilonema viteae in Mastomys natalensis at a dose of 350 mg/kg for 5 days by ip administration.

The structures appear in SMILES notation.

Consider `c1coc(-c2nccc3c2[nH]c2ccccc23)c1`, for which the Activity in experiment [1] and in experiment [2] was 0 in each case.
Consider `c1csc(C2NCCc3c2[nH]c2ccccc32)c1` (stereo unspecified), for which the Activity in experiment [2] and in experiment [3] was 0 each time.
As to `c1coc(C2NCCc3c2[nH]c2ccccc32)c1` (stereo unspecified), the Activity in experiment [2] and in experiment [3] was 0 in each case.
As to `c1ccc2c3c([nH]c2c1)C(c1ccsc1)NCC3` (stereo unspecified), the Activity in experiment [2] and in experiment [3] was 0 each time.
In the case of `c1c[nH]c(-c2nccc3c2[nH]c2ccccc23)c1`, the Activity turned out to be 0 in experiment [1] and 73 in the experiment with Rattus norvegicus [4].
For the compound `c1csc(-c2nccc3c2[nH]c2ccccc23)c1`, the Activity in experiment [1], in experiment [2] and in experiment [3] was 0 in each case.
As to `CCN(CC)C(=O)N1CCN(C)CC1.O=C(O)CC(O)(CC(=O)O)C(=O)O` [DIETHYLCARBAMAZINE CITRATE], the Activity with Rattus norvegicus [5] is listed as greater than 90; in experiment [1] it was 0; in experiment [3], 0.

The values are drawn from ChEMBL document CHEMBL1151020, “Synthesis of neoeudistomin analogsAs potential filaricides” (1995).
